PubChem BioAssay AID2842 (Southern Research Institute, 2010)
Values after ≈ are worked out from the molar mass of the structure shown.

system: M. tuberculosis H37Rv growth inhibition; assay: Mycobacterium tuberculosis H37Rv growth inhibition, putative kinase inhibitor library, confirmatory dose response (AID 2842);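 also: bacteria incubated one week before Alamar blue readout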

Row | SMILES | IC90 [µg/mL]
1 | Cc1ccc(C)c(-c2nnc(NC(=O)Cc3ccccc3)o2)c1 | 18.2 (≈ 59.4 µM)
2 | O=c1cnnc(N/N=C/c2cc(Br)ccc2O)[nH]1 | < 0.2
3 | Cc1nc2ccccc2c(=O)n1-c1cccc(NC(=O)c2cc([N+](=O)[O-])cc([N+](=O)[O-])c2)c1 | 27.8 (≈ 62.5 µM)
4 | Cc1ccc(C(=O)Nc2nnc(-c3ccc(C)cc3C)o2)c(C)c1 | 3.99 (≈ 12.4 µM)
5 | COc1ccc(NC(=O)c2cccc3nc4ccccc4nc23)c(OC)c1 | 4.07 (≈ 11.3 µM)
6 | O=C(Nc1nnc(C2=COCCO2)o1)c1cccc(Cl)c1 | 3.49 (≈ 11.3 µM)
7 | CC(=O)CSc1nc2c([nH]c3ccccc32)c(=O)n1-c1cc(C)ccc1C | 22 (≈ 58.2 µM)
8 | O=C(/C=C/c1ccc(-c2ccccc2[N+](=O)[O-])o1)c1cccs1 | 13 (≈ 39.9 µM)
9 | CCOc1cc(-c2nnc(NC(=O)C(C)C)o2)cc(OCC)c1OCC | 9.11 (≈ 25.1 µM)
10 | O=C(Nc1nnc(-c2ccc3c(c2)CCCC3)o1)c1c(F)cccc1F | 4.5 (≈ 12.7 µM)
11 | O=C(CSc1ncnc2c1nnn2Cc1ccc(F)cc1)N1CCOCC1 | 19.8 (≈ 50.9 µM)
12 | Cc1ccc(-c2nnc(NC(=O)c3cccc(Oc4ccccc4)c3)o2)c(C)c1 | 25.3 (≈ 65.5 µM)
13 | O=C(/C=C/c1cccs1)Nc1nnc(-c2ccco2)o1 | 5.99 (≈ 20.8 µM)
14 | COC(=O)c1ccc(NC(=O)CSc2nc(-c3cccc(C)c3)ns2)cc1 | < 0.2
15 | COc1ccc(C)c2sc(NNC(=O)c3ccccc3)nc12 | 4.03 (≈ 12.9 µM)
16 | CC1(C)Cc2c(sc(NC(=O)c3ccc(Oc4ccccc4)cc3)c2C(N)=O)C(C)(C)N1 | 6.22 (≈ 13.8 µM)
17 | N#Cc1ccc(C(=O)Nc2nnc(-c3ccc4c(c3)CCCC4)o2)cc1 | 1.71 (≈ 4.97 µM)
18 | Cc1cc(C)c2nc(NNC(=O)c3cc4ccccc4oc3=O)sc2c1 | 2.16 (≈ 5.91 µM)
19 | Cc1ccc(-c2nnc(NC(=O)c3ccccc3C)o2)c(C)c1 | 2.52 (≈ 8.2 µM)
20 | O=C(Nc1nnc(-c2ccc(F)cc2)o1)c1ccco1 | 2.84 (≈ 10.4 µM)
21 | O=C(Nc1nnc(-c2ccncc2)o1)c1cccc(C(F)(F)F)c1 | 28.1 (≈ 84.2 µM)
22 | Cc1c(Cl)ccc2sc(N(CCCn3ccnc3)C(=O)COc3ccccc3)nc12 | 3.05 (≈ 6.92 µM)
23 | O=C(Nc1nnc(-c2ccc(F)cc2)o1)c1cccc([N+](=O)[O-])c1 | 13.2 (≈ 40.2 µM)
24 | COc1ccccc1Cn1cc2c(-c3ccc(F)cc3)nnc-2c2cc(OC)c(OC)cc21 | 22 (≈ 49.7 µM)

Row | SMILES | IC90 [µg/mL]
25 | O=C(Nc1nnc(-c2cc(Cl)ccc2Cl)o1)c1ccc(S(=O)(=O)N2CCCCC2)cc1 | 11.7 (≈ 24.3 µM)
26 | Cn1c(/C(C#N)=C/c2c[nH]c3ccccc23)nc2ccccc21 | 10.2 (≈ 34.3 µM)
27 | Cc1ccc(C)c(-c2nnc(NC(=O)c3ccccc3S(C)(=O)=O)o2)c1 | 19.3 (≈ 52 µM)
28 | COc1ccc(C(=O)Oc2cccc(Nc3ncnc4ccccc34)c2)cc1 | 15.1 (≈ 40.5 µM)
29 | CCCCC(=O)Nc1nnc(-c2cc(Cl)ccc2Cl)o1 | 32.4 (≈ 103 µM)
30 | O=C(c1ccc(NC2=C(Cl)C(=O)N(Cc3ccccc3)C2=O)cc1)N1CCCCC1 | 6.24 (≈ 14.7 µM)
31 | O=C(Nc1ncc(Cc2ccccc2Cl)s1)c1cccs1 | 18.3 (≈ 54.5 µM)
32 | O=C(CCOc1ccccc1)Nc1nnc(-c2ccc(Cl)s2)o1 | 13.9 (≈ 39.7 µM)
33 | CCSc1ccc(C(=O)Nc2nnc(-c3ccco3)o2)cc1 | 0.71 (≈ 2.25 µM)
34 | Cc1cccc(C(=O)Nc2nnc(-c3cc(C)ccc3C)o2)c1 | 3.39 (≈ 11 µM)
35 | OCCN1CCN(c2ncnc3c2cnn3-c2ccc(Cl)c(Cl)c2)CC1 | 14.9 (≈ 38 µM)
36 | COc1cccc2sc(Nc3nc4c(s3)C(=O)CC(C)(C)C4)nc12 | 7.52 (≈ 20.9 µM)
37 | O=C(CCSc1ccccc1)Nc1nnc(-c2ccccc2)o1 | 12.9 (≈ 39.7 µM)
38 | CCC(=O)Nc1nnc(-c2ccc(Cl)s2)o1 | 8.62 (≈ 33.4 µM)
39 | Cc1ccc(-c2nnc(NC(=O)c3ccccc3Br)o2)c(C)c1 | 0.27 (≈ 0.725 µM)
40 | O=C(COc1ccc2ccccc2c1)Nc1nnc2n1CCS2 | 23.6 (≈ 72.2 µM)
41 | Cc1ccc2c(c1)c1nnc(-c3ccc4c(c3)OCO4)c-1cn2Cc1cccc(F)c1 | 3.39 (≈ 8.24 µM)
42 | Cc1[nH]c2ccccc2c1SCCNC(=O)c1cc2ccccc2oc1=O | < 0.2
43 | Cc1c(C)n2c3c(=O)[nH]c(=O)n(C)c3nc2n1CCCNc1ccccc1Cl | 25.4 (≈ 63.4 µM)
44 | Cc1ccc(C)c(-c2nnc(NC(=O)c3cc([N+](=O)[O-])ccc3Cl)o2)c1 | < 0.2
45 | CCOC(=O)/C=C/CSc1nc2sc3c(c2c(=O)[nH]1)CCCC3 | 12.8 (≈ 36.6 µM)
46 | Cc1ccc(C(=O)Nc2nnc(C3=COCCO3)o2)cc1 | 2.78 (≈ 9.68 µM)
47 | COc1cccc2sc(Nc3nc4ccc(S(C)(=O)=O)cc4s3)nc12 | 20.2 (≈ 51.7 µM)
48 | O=C(CSc1n[nH]c(=O)[nH]c1=O)c1ccccc1 | 12.1 (≈ 45.9 µM)

Row | SMILES | IC90 [µg/mL]
49 | COc1cccc2sc(Nc3nc4ccc(Cl)cc4s3)nc12 | 13.9 (≈ 40 µM)
50 | CCOC(=O)c1c(NC(=O)CCl)sc2c1CCCC2 | 29.8 (≈ 98.8 µM)
51 | O=C(Nc1nnc(-c2ccco2)o1)c1ccc2c(c1)OCCO2 | 11.6 (≈ 37.1 µM)
52 | O=C(c1ccco1)N(CCCn1ccnc1)c1nc2ccc(Cl)cc2s1 | 0.89 (≈ 2.3 µM)
53 | CCCCC(=O)Nc1nnc(-c2ccc(Br)cc2)o1 | 2.3 (≈ 7.09 µM)
54 | O=C(Nc1nc2c(s1)CCc1ccccc1-2)c1cccc(Br)c1 | 16.8 (≈ 43.6 µM)
55 | Cc1cccc(Cn2cc3c(-c4ccc(C)c(C)c4)nnc-3c3cc4c(cc32)OCCO4)c1 | 3.47 (≈ 7.97 µM)
56 | C=CCNC(=S)NNc1ccc([N+](=O)[O-])cc1 | 10 (≈ 39.6 µM)
57 | COc1ccc(OC)c2sc(N(CCCn3ccnc3)C(=O)c3ccc(F)cc3)nc12 | 13.5 (≈ 30.6 µM)
58 | Cc1cccc2sc(NNC(=O)c3ccc(N(C)C)cc3)nc12 | 28.6 (≈ 87.6 µM)
59 | Cc1ccc(C)c(-c2nnc(NC(=O)c3ccccc3[N+](=O)[O-])o2)c1 | 4.88 (≈ 14.4 µM)
60 | O=C(Nc1nnc(-c2cccs2)o1)c1ccc2c(c1)CCCC2 | 37.6 (≈ 116 µM)
61 | Cc1ccc(C)c(-c2nnc(NC(=O)c3cccc(Br)c3)o2)c1 | 12.6 (≈ 33.9 µM)
62 | O=C(Nc1nnc(-c2ccc(Br)cc2)o1)c1ccc2c(c1)CCCC2 | 16.8 (≈ 42.1 µM)
63 | O=c1cnnc(N/N=C/c2ccccc2O)[nH]1 | 0.46 (≈ 1.99 µM)
64 | CCOC(=O)c1sc(NC(=O)CCSc2ccccc2)cc1C | 0.82 (≈ 2.35 µM)
65 | O=C(Nc1nnc(-c2ccc(Cl)s2)o1)c1nc2ccccc2s1 | 4.81 (≈ 13.3 µM)
66 | O=C(CCCN1C(=O)/C(=C/c2ccco2)SC1=S)Nc1ccccc1 | 2.96 (≈ 7.95 µM)
67 | c1ccc(CSc2ncnc3nc[nH]c23)cc1 | 19.5 (≈ 80.3 µM)
68 | Cc1ccc2nc(NNC(=O)c3cccc(F)c3)sc2c1 | 7.65 (≈ 25.4 µM)
69 | CCCCOc1cccc(C(=O)Nc2nnc(-c3ccc(C)cc3C)o2)c1 | 2.63 (≈ 7.2 µM)
70 | COc1ccc(O)c(/C=N/NC(=O)c2ccncc2)c1 | 0.82 (≈ 3.02 µM)
71 | COc1ccc(CC2S/C(=N/N=C/c3ccccc3O)NC2=O)cc1 (stereo unspecified) | < 0.2
72 | O=c1c2ccccc2oc2cc(O)ccc12 | 50 (≈ 236 µM)

Row | SMILES | IC90 [µg/mL]
73 | O=C(Nc1nnc(-c2ccc3c(c2)CCCC3)o1)c1ccc(F)cc1 | 21.6 (≈ 64 µM)
74 | CC(C)(C)/C(O)=C(/C#N)c1nc2ccccc2[nH]1 | 16.6 (≈ 68.6 µM)
75 | Cc1ccc(C)c(-c2nnc(NC(=O)C(C)C)o2)c1 | 6.62 (≈ 25.5 µM)
76 | Cc1ccc(-c2nnc(NC(=O)c3ccc(S(=O)(=O)N(C)C4CCCCC4)cc3)o2)c(C)c1 | 39.2 (≈ 83.6 µM)
77 | Oc1ccc(Br)cc1C1CC(c2ccoc2)=NN1 (stereo unspecified) | 25.3 (≈ 82.4 µM)
78 | O=C(OCc1ccco1)c1cc2ccccc2oc1=O | 20.4 (≈ 75.3 µM)
79 | Cc1ccc(-c2nnc(NC(=O)c3cc([N+](=O)[O-])ccc3Cl)o2)c(C)c1 | 1.57 (≈ 4.21 µM)
80 | O=C(Nc1nnc(-c2ccco2)o1)c1cc(Cl)ccc1Cl | 4.99 (≈ 15.4 µM)
81 | COc1ccc(Cn2cc(C(=O)c3ccc(C)cc3)c(=O)c3cc(OC)c(OC)cc32)cc1 | 7.05 (≈ 15.9 µM)
82 | CCN(CC)S(=O)(=O)c1ccc(C(=O)Nc2sccc2C(=O)NC(=O)OC)cc1 | < 0.2
83 | O=C(Nc1nnc(-c2ccc3c(c2)OCCO3)o1)c1ccccc1Br | 12.6 (≈ 31.4 µM)
84 | Cc1ccccc1C(=O)Nc1nnc(-c2ccncc2)o1 | 13.5 (≈ 48.2 µM)
85 | CCN1CCc2c(sc(NC(=O)c3ccccc3)c2-c2nc3ccccc3s2)C1 | 0.73 (≈ 1.74 µM)
86 | CC(C)(C)c1ccc(C(=O)Nc2nnc(-c3ccc(S(C)(=O)=O)cc3)o2)cc1 | 24.6 (≈ 61.7 µM)
87 | CCOc1ccc2c(c1)O/C(=C\c1cccc(OCC(=O)OC)c1)C2=O | 1.66 (≈ 4.68 µM)
88 | CCC(=O)Nc1nnc(-c2cc(Cl)ccc2Cl)o1 | 30.1 (≈ 105 µM)
89 | N#C/C(=C\c1ccc([N+](=O)[O-])cc1)c1nc2ccccc2[nH]1 | 6.12 (≈ 21.1 µM)
90 | CC1=NC2C=CC(Cl)=CC2C(c2ccccc2)=C1C(=O)/C=C/c1nc2ccccc2[nH]1 (stereo unspecified) | 0.73 (≈ 1.71 µM)
91 | COc1cc(C2C3=C(CC(C)(C)CC3=O)Nc3ncnn32)ccc1OCc1ccc(Cl)c(Cl)c1 (stereo unspecified) | 6.77 (≈ 13.6 µM)
92 | N#Cc1c(NC(=O)c2cc(Cl)ccc2Cl)sc2c1CCN(Cc1ccccc1)C2 | 12.3 (≈ 27.8 µM)
93 | COc1ccc2nc(Nc3sc4c(c3C(N)=O)CCC(C)C4)sc2c1 (stereo unspecified) | 27.8 (≈ 74.5 µM)
94 | O=C(Nc1nnc(-c2cc(Cl)ccc2Cl)o1)c1ccc(Cl)s1 | 1.86 (≈ 4.96 µM)
95 | CSc1cccc(-c2nnc(NC(=O)/C=C/c3cccs3)o2)c1 | 4.49 (≈ 13.1 µM)
96 | Cc1ccc(-c2nnc(NC(=O)CCSc3ccccc3)o2)c(C)c1 | 15.1 (≈ 42.7 µM)

Row | SMILES | IC90 [µg/mL]
97 | O=C(Nc1nnc(-c2ccc3c(c2)CCCC3)o1)c1ccc([N+](=O)[O-])o1 | 10.6 (≈ 29.9 µM)
98 | CN1C(=O)c2cccc(NC(=O)c3ccc([N+](=O)[O-])s3)c2C1=O | 25.1 (≈ 75.7 µM)
99 | O=C(CSc1nc(-c2cccc(F)c2)[nH]c1-c1ccccc1)Nc1ccc2c(c1)OCCO2 | 7.87 (≈ 17.1 µM)
100 | c1ccc(-c2csc(Nc3nc4cc5c(cc4s3)OCO5)n2)nc1 | 1.79 (≈ 5.05 µM)
101 | O=C(Nc1nnc(-c2ccco2)o1)c1cccc(C(F)(F)F)c1 | < 0.2
102 | O=C(Cc1ccccc1)Nc1nnc(-c2ccc3c(c2)OCCO3)o1 | 15.8 (≈ 47 µM)
103 | COc1ccc(-c2ccc(C3C(C#N)=C(N)Oc4n[nH]c(C)c43)o2)cc1 (stereo unspecified) | 4.92 (≈ 14.1 µM)
104 | Cc1ccc(Nc2nc(N3CCN(Cc4ccccc4)CC3)nc3nccnc23)cc1 | 7.94 (≈ 19.3 µM)
105 | O=C(OCc1nc2ccccc2s1)c1ccc(C(=O)c2ccccc2)cc1 | 17.3 (≈ 46.2 µM)
106 | Cc1c(C)n2c3c(=O)[nH]c(=O)n(C)c3nc2n1-c1ccccc1O | 0.75 (≈ 2.31 µM)
107 | Cc1c(Cl)ccc2sc(N(CCCn3ccnc3)C(=O)/C=C/c3cccs3)nc12 | 0.24 (≈ 0.542 µM)
108 | Cc1ccc(N=Nc2c(C)[nH][nH]c2=O)cc1 | 10.1 (≈ 46.6 µM)
109 | COC(=O)CSCC(=O)Nc1nnc(-c2ccccc2C)s1 | 13.7 (≈ 40.7 µM)
110 | Cc1cc(Cl)cc2sc(N(CCCn3ccnc3)C(=O)c3ccco3)nc12 | < 0.2
111 | O=C(CCOc1ccccc1)Nc1nnc(-c2ccc3c(c2)OCCO3)o1 | 95.9 (≈ 261 µM)
112 | O=C(CSc1nnc2ccc(-c3cccc([N+](=O)[O-])c3)nn12)Nc1cccc(C(F)(F)F)c1 | 3.34 (≈ 7.04 µM)
113 | Cc1nc2c(ccc3nc(NC(=O)c4ccc(C(C)(C)C)cc4)sc32)s1 | 3.24 (≈ 8.49 µM)
114 | Cc1ccc(C)c(-c2nnc(NC(=O)c3ccc4ccccc4c3)o2)c1 | 18.8 (≈ 54.7 µM)
115 | CC(C)CCn1c(NCCc2ccccc2)nc2c1c(=O)n(C)c(=O)n2C | 11 (≈ 29.9 µM)
116 | COc1ccc(-c2nnc(NC(=O)c3ccc(Cl)cc3Cl)o2)cc1 | 14.1 (≈ 38.7 µM)
